Results published in patent publication US20070270339A1, “Use of GPCR54 Ligands for the Treatment of Infertility” (SERONO, INC., priority 2004, published 2007).
No end group written: not given here.

How the values were obtained:
GPCR54 = GPCR54 (Homo sapiens, UniProt Q969F8); settings: peptides from placental tissue extract, Kotani et al. 2001; cited from earlier work
[1] = test system: gonadotropic axis (plasma LH and FSH); experiment: i.v. injection of Kiss-1: plasma LH and FSH levels, with or without Antide pretreatment; type: in vivo, rat
Experimental: (§1) All experiments were conducted in female Sprague-Dawley rats (180-200 g) obtained from Charles River (MA), fed with standard laboratory chow and water ad libitum, kept on 12 h light-dark in temperature and humidity controlled room.
(§2) Ovariectomy and implantation of estrogen-containing capsule. To remove daily variance of plasma estrogen levels due to variable estrous cycle, both ovaries were removed under anesthesia through incision at the animal's back. Right before closure of the incision, two estrogen-containing capsules (0.5 mg/coupsule, Innovative Research of America, FL) were inserted subcutaneously at the middle of animal's back to maintain consistent basal physiological levels of plasma estrogen. Rats were allowed to recover for 7 days.
Jugular cannula insertion and tethering to automated blood sampler. The right jugular vein of anesthetized rats was exposed through a neck incision. A retaining suture was tied to the exposed vein at rostral end to manipulate the vein. The caudal end of the vein was clamped with a small forceps to prevent bleeding while a cannula, a polyethene tubing (OD 1.0 mm), was inserted in the middle of the vein through a 0.5 mm incision made with iris scissors. After the insertion of the cannula, a suture was tied around the vein at the caudal end to secure the cannula within the vein. The incision at the neck was closed with wound clips and the outer end of the cannula was attached to a tubing of an automated blood sampler (Bioanalytical Systems Inc., IN) filled with heparin-containing (20 IU/ml) sterile saline. The automated blood sampler consisting of a turning cage equipped with a food box and a water bottle, a balanced arm, a pumping system, a fraction collector and a controller was used to collect blood samples. A rat inserted of a jugular cannula was tethered to the balanced arm via a loosely-fitting plastic collar. The cage rotates to the counter direction of animal's movement to prevent twisting of the jugular cannula connected to a tubing of the sampler, as well as to allow the rat to eat, drink and move freely during the course of the blood collection. Rats were allowed to recover for 24 hours.
All experiments were carried out around between 13 h and 14 h. […]
(§3) Changes of plasma LH and FSH concentration (ng/ml) after injection were obtained as the area under the curve (AUC). It was first determined for each animal by calculating the sum of post-treatment hormonal levels at 15, 30 and 45 min each of which was subtracted by basal levels (an average of pre-treatment levels at −15 and 0 min), then averaged as a group. Statistical differences among treatment groups were determined by one-way ANOVA followed by LSD as a post-hoc test. […]

[2] = test system: gonadotropic axis (plasma LH and FSH); experiment: i.c.v. injection of Kiss-1: plasma LH and FSH levels; type: in vivo, rat
Experimental: as §1
Implantation of intracerebroventricular cannula for i.c.v. experiment. The head of anesthetized rats was placed in the stereotaxic instrument and oriented such that the bregma and lambda was horizontal. An incision was made along the sagittal midline in an anterior-to-posterior direction. A hole, 1.5 mm in diameter, was drilled through the skull 0.9 mm posterior and 0.0 mm lateral to bregma. A 25 mm×22 gauge stainless steel cannula was lowered about 7 mm until cerebrospinal fluid could be aspirated from the 3rd ventricle via a 1 cc syringe connected to the cannula by a 5 cm section of Silastic tubing. After sealing the outer opening of the cannula, it was anchored to the skull with three stainless steel screws and dental acrylic cement then the incision was closed. Rats were allowed to recover for 14 days.
as §2
Jugular cannula insertion and tethering to automated blood sampler. The right jugular vein of anesthetized rats was exposed through a neck incision. A retaining suture was tied to the exposed vein at rostral end to manipulate the vein. The caudal end of the vein was clamped with a small forceps to prevent bleeding while a cannula, a polyethene tubing (OD 1.0 mm), was inserted in the middle of the vein through a 0.5 mm incision made with iris scissors. After the insertion of the cannula, a suture was tied around the vein at the caudal end to secure the cannula within the vein. […]
as §3

LH and FSH release = experiment: in vivo comparison of GnRH and Kiss1 on release of LH and FSH over 45 minutes (FIG. 1); parameters: species or system rat; settings: single administration, compared with GnRH
Experimental: All experiments were carried out around between 13 h and 14 h. […] Blood samples (100 ul) were removed before (−15 and 0 min) and after (15, 30, 45 min) injection with the automated blood sampler. Each blood sample was replaced with an equivalent volume of the heparin-containing (20 IU/ml) sterile saline. Plasma was extracted and stored at −20° C. until determination of LH and FSH by enzyme-linked immunoassay and radioimmunoassay, respectively.
Changes of plasma LH and FSH concentration (ng/ml) after injection were obtained as the area under the curve (AUC). It was first determined for each animal by calculating the sum of post-treatment hormonal levels at 15, 30 and 45 min each of which was subtracted by basal levels (an average of pre-treatment levels at −15 and 0 min), then averaged as a group. Statistical differences among treatment groups were determined by one-way ANOVA followed by LSD as a post-hoc test. An initial data set is shown in FIGS. 1A-P. Further data are described in Examples 2 and 3 below.

GPCR54, sequence (Q969F8 whole entry): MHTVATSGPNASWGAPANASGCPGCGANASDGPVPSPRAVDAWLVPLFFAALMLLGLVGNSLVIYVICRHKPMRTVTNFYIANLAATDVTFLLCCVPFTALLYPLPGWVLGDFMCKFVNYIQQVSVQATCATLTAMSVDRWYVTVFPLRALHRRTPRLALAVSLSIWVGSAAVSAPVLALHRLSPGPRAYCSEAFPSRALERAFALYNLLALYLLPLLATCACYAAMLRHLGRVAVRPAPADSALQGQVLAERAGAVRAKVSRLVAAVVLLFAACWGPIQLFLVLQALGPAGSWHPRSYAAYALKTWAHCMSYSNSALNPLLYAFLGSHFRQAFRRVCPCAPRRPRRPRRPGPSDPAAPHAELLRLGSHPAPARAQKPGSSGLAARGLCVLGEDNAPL

SEQ ID NO:6: 13-amino acid kisspeptin from Kiss-1 with RF-amide at the C-terminus (Kotani et al.) (LPNYNWNSFGLRF-NH2; listed as Homo sapiens)
agonist activity at GPCR54 (GPCR54): agonists of GPCR54

SEQ ID NO:5: 14-amino acid kisspeptin from Kiss-1 with RF-amide at the C-terminus (Kotani et al.) (DLPNYNWNSFGLRF-NH2; listed as Homo sapiens)
agonist activity at GPCR54 (GPCR54): agonists of GPCR54

Antide [reference compound]
prevention of GnRH- and Kiss-1-induced elevations of circulating gonadotropins levels ([1]; Antide pretreatment 15 min before injection of 400 ug/kg of Kiss-1): successfully prevented

Tyr-Asn-Trp-Asn-Ser-Phe-Gly-Leu-Arg-Phe-NH2 (YNWNSFGLRF-NH2; listed as Homo sapiens) [Kiss-1]
plasma FSH levels ([1]; i.v. injection, estrogen-treated ovariectomized rats): dose-dependent increases
plasma LH levels ([1]; i.v. injection, estrogen-treated ovariectomized rats, with the exception of LH response at the highest dose): dose-dependent increases
i.c.v. dose to yield FSH response as fraction of i.v. dose ([2]; FSH, i.c.v. versus i.v.): 1/100
i.c.v. dose to yield LH response as fraction of i.v. dose ([2]; LH, i.c.v. versus i.v.): 1/25
LH release ([2]; i.c.v. injection, estrogen-treated ovariectomized rats): dose-dependently stimulated LH release
FSH levels ([2]; i.c.v. injection, higher dose not as effective as the lower dose): significant increase of FSH levels
LH and FSH production (LH and FSH release): sufficient to drive LH and FSH production similar to GnRH

SEQ ID NO: 4: 54-amino acid kisspeptin from Kiss-1 with RF-amide at the C-terminus (Kotani et al.) (GTSLSPPPESSGSPQQPGLSAPHSRQIPAPQGAVLVQREKDLPNYNWNSFGLRF-NH2; listed as Homo sapiens)
agonist activity at GPCR54 (GPCR54): agonists of GPCR54

GnRH: GnRH, a positive control, obtained from Sigma (QHWSYGLRPG; Gonadoliberin-1; UniProt P01148 24-33, looked up) [reference compound]
circulating gonadotropins levels ([1]; GnRH positive control, estrogen-treated ovariectomized rats): induced elevations of circulating gonadotropins levels
